Experimental data reported in patent publication US8785446B2, “Treating post-seizure patients” (priority 2009, dated 2014).
“Also recorded” adds a separate entry of the source.

What was measured:
CaMKII = CaMKII activity (ELISA) after hypoxic seizures and in vivo AMPAR antagonist treatment; conditions: 1 hour following hypoxic seizures; in vivo administration vs vehicle
Protocol: (§1) Protein kinase A (PKA) […] mediates the phosphorylation of GluR1 S845 and protein kinase C (PKC) is involved in the phosphorylation of both GluR1 S831 (Kameyama et al., 1998; Mammen et al., 1997) and GluR2 S880 (Seidenman et al., 2003). […] Similarly, CaMKII activity increased at 1 hour post-seizures before returning to baseline levels at 6 hours post-hypoxia. […] The rapid seizure-induced activation of these protein kinases are occurring coincident with the alterations in phosphorylation state of their known substrates, GluR1 S831, GluR1 S845, and GluR2 S880.
(§2) To determine whether seizure-induced activation of AMPAR plays a critical role in the alterations in EPSCs and subunits reported here, we examined whether pharmacologic inhibition of AMPARs in vivo following hypoxic seizures leads to a decrease in the activity of Ca^2+ dependent protein kinases and GluR1 subunit phosphorylation state. […] Within 30 minutes after hypoxic seizures, rats were treated with a single dose of systemically administered AMPAR antagonists NBQX (20 mg/kg), topiramate (30 mg/kg) or GYKI-53773 (7.5 mg/kg), and compared to vehicle-treated (0.1 ml PBS) hypoxic controls and normoxic littermates. These treatment doses are the same as the treatment paradigm in which we previously observed an attenuation of long-term epileptogenic changes (Koh et al., 2004). […] Importantly, blockade of AMPAR-mediated neurotransmission is the common mechanistic feature of these three structurally unrelated compounds and may represent the potential mode of mediating alterations.

[1] = tested on: AMPAR-mediated sEPSCs in CA1 neurons; assay: AMPAR-mediated sEPSCs in ex vivo hippocampal slices after post-seizure treatment in vivo; design: species or system rat; conditions: for sEPSC amplitude / sEPSC frequency: hippocampal slices prepared 1 hour after administration post hypoxic seizure, vs vehicle; for acute and subacute enhancement in AMPAR EPSCs: post-treatment during the early period after seizure induction
Protocol: Neonatal seizures have been described to enhance the excitability of hippocampal networks as well as cause alterations in long-term network excitability (Jensen et al., 1991; Sanchez et al., 2001; Silverstein and Jensen, 2007; Cornejo et al., 2007), but their acute effects on AMPAR function have not been examined. We compared spontaneous (s) and miniature (m) AMPAR-mediated excitatory postsynaptic currents (EPSCs) in CA1 pyramidal neurons in P10 rat pup hippocampal slices removed 1 hour after hypoxia-induced seizures (hypoxic seizures) and normoxic control rat pups.
Following hypoxic seizures, NBQX, topiramate or GYKI-53773 were administered to the rat pups experiencing hypoxic seizures and hippocampal slices were prepared 1 hour after administration of AMPAR antagonists.

PKC = PKC activity (ELISA) after hypoxic seizures and in vivo AMPAR antagonist treatment; design: species or system rat; conditions: 6 hours post-hypoxic seizures; vs vehicle
Protocol: as §1, §2

[2] = tested on: GluR1 S831 and GluR1 S845; assay: AMPAR GluR1 subunit phosphorylation in hippocampus after post-seizure AMPAR antagonist treatment in vivo; design: species or system rat; conditions: for GluR1 S845 phosphorylation: 12 hours after hypoxia-induced seizures; for GluR1 S845 phosphorylation / GluR1 S831 phosphorylation: single systemic dose within 30 minutes after seizures, vs vehicle; for GluR1 S831 phosphorylation: 12 hours after hypoxic seizures; for GluR1 subunit phosphorylation: post-treatment during the early period after seizure induction
Text: The strength of synaptic transmission in intact neuronal networks, such as in LTP, can be regulated by altered AMPAR function mediated by phosphorylation of GluR1 S831 and GluR1 S845 (Barria et al., 1997; Lee et al., 2000; Lee et al., 2003).
To determine whether seizure-induced activation of AMPAR plays a critical role in the alterations in EPSCs and subunits reported here, we examined whether pharmacologic inhibition of AMPARs in vivo following hypoxic seizures leads to a decrease in the activity of Ca^2+ dependent protein kinases and GluR1 subunit phosphorylation state. […] Within 30 minutes after hypoxic seizures, rats were treated with a single dose of systemically administered AMPAR antagonists NBQX (20 mg/kg), topiramate (30 mg/kg) or GYKI-53773 (7.5 mg/kg), and compared to vehicle-treated (0.1 ml PBS) hypoxic controls and normoxic littermates.

KA-induced seizures = assay: Susceptibility to KA-induced seizures 3 days after hypoxic seizures at P10; type: in vivo, rat
Protocol: We have previously reported that enhanced hippocampal excitability observed in rat pups following hypoxia-induced seizures is reflected in the increased susceptibility to KA-induced seizures in these animals at both short (72-96 h) and long (40+ days) intervals following the initial seizures at P10 (Koh et al., 2004).

hypoxia-induced seizures = conditions: post-seizure treatment within the first 48 hours following hypoxic seizures; cited from earlier work
PKA = PKA activity (ELISA) after hypoxic seizures and in vivo AMPAR antagonist treatment; design: species or system rat; conditions: 1 hour following hypoxic seizures; vs vehicle
Protocol: as §1, §2

GluR2-lacking AMPARs = assay: Evoked EPSC recording in CA1 pyramidal neurons of hippocampal slices removed 1 hour after hypoxic seizures; type: cell-based, rat; conditions: bath application 10 μM; slices 1 hour after in vivo seizures in P10 pup; compared to normoxic controls
Protocol: The age window around P10-12 is characterized by a relative preponderance of Ca^2+ permeable AMPARs in hippocampal and neocortical neurons resulting from a developmentally regulated decrease in GluR2 subunit expression (Sanchez et al., 2001; Durand and Zukin, 1993; Talos et al., 2006b; Kumar et al., 2002). Additionally, hypoxic seizures have been previously associated with a decrease in the expression of GluR2 mRNA and protein 48 hours following the induction of seizures (Sanchez et al., 2001). However the acute alterations in the phosphorylation and function of GluR-2 lacking AMPARs following hypoxic seizures have not been well-characterized. […] Expression of inwardly rectifying AMPAR-mediated currents can result from an increase in phosphorylation of GluR2 S880 and resultant trafficking of the GluR2 subunit out of the synaptic membrane (Chung et al., 2000; Kim et al., 2001; Seidenman et al., 2003). Indeed, GluR2 S880 phosphorylation was increased in the hippocampus of rats experiencing hypoxic seizures as compared to normoxic litter mates, maximal at 12 hours post hypoxia. This seizure-induced phosphorylation of GluR2 S880 may contribute to the subacute changes in GluR2 expression reported previously (Sanchez et al., 2001), as well as increased inward rectification of EPSPs reported above.

[3] = cited from earlier work
neonatal seizures = conditions: cited from earlier work

| Structure (SMILES) | activity of CaMKII (CaMKII) | sEPSC amplitude [1] | sEPSC frequency [1] | acute and subacute enhancement in AMPAR EPSCs [1] | seizure-induced increase in PKC activity (PKC) | GluR1 S845 phosphorylation [2] | GluR1 S831 phosphorylation [2] | GluR1 subunit phosphorylation [2] | latency to seizures (KA-induced seizures; P13, 20 mg/kg i.p., compared to vehicle treated hypoxic controls) | maximal seizure severity (KA-induced seizures; P13, 20 mg/kg i.p., compared to vehicle-treated pups with prior hypoxic seizures) | enhanced seizure susceptibility (KA-induced seizures; at P13 (72 hours post-hypoxic seizures), 20 mg/kg i.p. following hypoxic seizures, KA 2 mg/kg i.p.) | long-term increase in susceptibility to seizures (hypoxia-induced seizures) | seizure-induced neuronal injury (hypoxia-induced seizures) | seizure-induced PKA activation (PKA) | eEPSCs in CA1 pyramidal neurons post-hypoxia (GluR2-lacking AMPARs) | threshold for memory impairment ([3]; healthy volunteers and patients with epilepsy) | infants with neonatal seizures in whom efficacy for acute seizure suppression is lacking (neonatal seizures; first line therapy) [%] | effect on long-term outcome (neonatal seizures; infants with neonatal seizures) | cognitive impairment ([3]; preliminary human studies) |
| --- | --- | --- | --- | --- | --- | --- | --- | --- | --- | --- | --- | --- | --- | --- | --- | --- | --- | --- | --- |
| NS(=O)(=O)c1cccc2c1c([N+](=O)[O-])cc1nc(O)c(O)nc12 [NBQX] | reduced to near baseline levels; also recorded: blocked | significantly attenuated | attenuation | blocked | significantly reduced; also recorded: blocked | significantly reduced to baseline normoxia levels | significantly reduced to baseline normoxia levels | blocked | significantly longer | significantly lower | significantly attenuated; also recorded: reversal | prevents | prevents | reduced significantly; also recorded: blocked |  |  |  |  |  |
| CCCC(=O)N[C@@H](Cc1ccc(O)cc1)C(=O)NCCCCNCCCNCCCN [PhTX-433] |  |  |  |  |  |  |  |  |  |  |  |  |  |  | blocked the majority of eEPSCs |  |  |  |  |
| CC1(C)O[C@@H]2[C@@H](CO[C@@]3(COS(N)(=O)=O)OC(C)(C)O[C@@H]23)O1 [topiramate] | reduced to near baseline levels; also recorded: blocked | significantly attenuated | attenuation | blocked | blocked | significantly reduced to baseline normoxia levels | significantly reduced to baseline normoxia levels | blocked |  |  |  | prevents | prevents | reduced significantly; also recorded: blocked |  | lower than lamotrigine and valproate |  |  |  |
| O=C1NC(=O)C(c2ccccc2)(c2ccccc2)N1 [phenyloin] |  |  |  |  |  |  |  |  |  |  |  |  |  |  |  |  | ~50 | no effect |  |
| CC(=O)N1N=C(c2ccc(N)cc2)c2cc3c(cc2C[C@H]1C)OCO3 [GYKI-53773] | reduced to near baseline levels; also recorded: blocked | significantly attenuated | attenuation | blocked | significantly reduced; also recorded: blocked | significantly reduced to baseline normoxia levels | significantly reduced to baseline normoxia levels | blocked |  |  |  |  |  | blocked |  |  |  |  | less cognitive impairment |
